From patent publication US8410056B2, “Pro-oxidant anti-cancer compounds” (priority 2006, dated 2013)

Legend:
MCF-7 cells = assay: Apoptosis, annexin V-FITC method; type: cell-based, human
Description: (§1) Cell culture and treatment. […] Cells were cultured in DMEM with 10% FCS, 100 U/ml penicillin and 100 μg/ml streptomycin at 37° C. in a humidified atmosphere of 5% CO2. Mitochondrial complex I-deficient (Breen and Scheffler 1979; DeFrancesco et al 1976; Scheffler et al 2004) and complex II-deficient cells (Albayrak et al 2003; Oostveen et al 1995) were grown in DMEM with 10% FCS, […] glucose and non-essential amino acids.
At approximately 70% confluency, cells were treated with up to 50 μM α-TOS (Sigma), up to 100 μM 3-BP (Aldrich) or 30 ng/ml of human recombinant tumor necrosis factor-related apoptosis—inducing ligand (TRAIL) (Weber et al, 2002) under normoxic or hypoxic conditions. For hypoxia, cells overlaid with nitrogen-purged medium were placed in a hypoxic chamber pre-flushed extensively with nitrogen. The hypoxic chamber with cells was then placed in the incubator as required. α-TOS was dissolved in ethanol and used such that the final ethanol concentration in cell culture medium was <0.1% (v/v). Stock solutions of 3-BP were prepared in PBS prior to use.
Apoptosis assessment. Apoptosis was quantified using the annexin V-FITC method, which detects phosphatidyl serine externalized in the early phases of apoptosis (Boersma et al, 1996). Briefly, cells were plated at 10^5 per well in 24-well plates and, after an overnight recuperation, treated with α-TOS or 3-BP alone or in combination. Floating and attached cells were harvested, washed with PBS, resuspended in 0.2 ml binding buffer (10 mM Hepes, 140 mM NaCl, 5 mM CaCl2, pH 7.4), incubated for 30 min at 4° C. with 2 μl annexin V-FITC (PharMingen), supplemented with 200 μl of 50 μg/ml propidium iodide (PI; Sigma), and analyzed by flow cytometry (FACScalibur, Becton Dickinson) using channel 1 for annexin V-FITC binding and channel 2 for PI staining. Cell death was quantified as the percentage of cells with increased annexin V binding and PI staining. […]

[1] = molecular target: T1, SDH/Complex II, Paracoccus denitrificans membranes (Paracoccus denitrificans, UniProt Q59659+Q59660+Q59662); assay: SDH/Complex II activity, DCIP/PMS assay; type: biochemical; conditions: 100 or 300 μM α-TOS; compared to control
T1 construct: Membranes were prepared from harvested cells by treating with lysozyme; endogenous in cells; host or cells: membrane vesicles of P. denitrificans CCM 982 (NCIB 8944), endogenous enzyme
Description: Preparation of membrane vesicles from Paracoccus denitrificans. P. denitrificans CCM 982 (NCIB 8944) was grown anaerobically at 30° C. in a medium containing 50 mM succinate as the carbon source and 10 mM nitrate as the terminal acceptor. Membranes were prepared from harvested cells by treating with lysozyme according to Burnell et al (1975). After dilution in 0.1 M Na phosphate, pH 7.3, to a final protein concentration of approximately 20 mg/ml, the membranes were stored at −20° C. in 1 ml aliquots until used. The protein concentration was determined using the bicinchoninic acid method and an iEMS plate reader (Labsystem, Finland).
Measurement of mitochondrial complex II and complex I activity. A time course for the reduction of the complex II substrate 2,6-dichlorophenol indophenol (DCIP) by the mitochondrial preparations was followed by measuring the absorbance at 600 nm in 1 cm cuvettes containing a 1 ml reaction volume (ε600=21×10^3 M^−1cm^−1). The reaction components included NADH, 0.5 mM; succinate, 5 mM; KCN, 10 mM; DCIP, 50 μM; PMS, 50 μM. For each assay point, 0.5 mg sample protein was used and α-TOS was added at either 100 or 300 μM as indicated. The change in absorbance of DCIP was measured using a spectrophotometer (UVIKON XL, Secomam) and replicate samples were assayed (n=3). When measuring the complex I (NADH dehydrogenase activity), PMS was omitted. […]

[2] = system: Chinese hamster lung fibroblasts (B1, B10, B9, B9rec cells); assay: ROS, SDH activity and apoptosis in complex I- and complex II-deficient cells; type: cell-based
Description: as §1
Assessment of ROS accumulation. Cellular ROS were detected with the probe dihydroethidinium (DHE) (Molecular Probes) by flow cytometry (Weber et al, 2003), or by trapping with 5,5-dimethyl-1-pyrroline N-oxide (DMPO; Sigma) using electron paramagnetic resonance (EPR) spectro-scopy (Weber et al, 2003). In some studies, the cells were pre-treated for 1 h with 2 μM MitoQ (James et al, 2005) or coincubated with SOD (PEG-SOD, 750 units/ml; Sigma).
Apoptosis assessment. Apoptosis was quantified using the annexin V-FITC method, which detects phosphatidyl serine externalized in the early phases of apoptosis (Boersma et al, 1996). Briefly, cells were plated at 10^5 per well in 24-well plates and, after an overnight recuperation, treated with α-TOS or 3-BP alone or in combination. Floating and attached cells were harvested, washed with PBS, resuspended in 0.2 ml binding buffer (10 mM Hepes, 140 mM NaCl, 5 mM CaCl2, pH 7.4), incubated for 30 min at 4° C. with 2 μl annexin V-FITC (PharMingen), supplemented with 200 μl of 50 μg/ml propidium iodide (PI; Sigma), and analyzed by flow cytometry (FACScalibur, Becton Dickinson) using channel 1 for annexin V-FITC binding and channel 2 for PI staining. Cell death was quantified as the percentage of cells with increased annexin V binding and PI staining.
Complex I- and complex II-deficient cells were also used to confirm the above in vitro results of Example 6.

MCF-7 tumors = assay: MCF-7 xenograft in nude mice; type: in vivo; conditions: 10 μmoles i.p. every 3 d
[3] = cited from earlier work
[4] = compared to parental (B1) or B10 cells

T1 sequence (Q59662 whole entry): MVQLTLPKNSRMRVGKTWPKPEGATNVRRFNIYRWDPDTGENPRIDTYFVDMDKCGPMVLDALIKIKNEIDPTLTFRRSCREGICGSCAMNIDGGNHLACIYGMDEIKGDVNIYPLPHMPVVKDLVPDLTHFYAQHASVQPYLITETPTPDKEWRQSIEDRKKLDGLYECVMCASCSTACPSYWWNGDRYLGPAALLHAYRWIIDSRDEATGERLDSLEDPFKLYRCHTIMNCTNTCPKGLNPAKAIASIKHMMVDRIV
T1 sequence (Q59660 whole entry): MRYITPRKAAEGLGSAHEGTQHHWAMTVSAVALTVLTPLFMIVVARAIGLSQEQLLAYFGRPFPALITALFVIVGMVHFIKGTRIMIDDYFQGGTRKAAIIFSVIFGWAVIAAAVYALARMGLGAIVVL
T1 sequence (Q59659 whole entry): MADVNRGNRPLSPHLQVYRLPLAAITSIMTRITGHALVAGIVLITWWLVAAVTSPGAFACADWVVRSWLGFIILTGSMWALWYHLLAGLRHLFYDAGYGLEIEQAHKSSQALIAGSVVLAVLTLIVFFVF
T1 sequence (Q59661 whole entry, further chain): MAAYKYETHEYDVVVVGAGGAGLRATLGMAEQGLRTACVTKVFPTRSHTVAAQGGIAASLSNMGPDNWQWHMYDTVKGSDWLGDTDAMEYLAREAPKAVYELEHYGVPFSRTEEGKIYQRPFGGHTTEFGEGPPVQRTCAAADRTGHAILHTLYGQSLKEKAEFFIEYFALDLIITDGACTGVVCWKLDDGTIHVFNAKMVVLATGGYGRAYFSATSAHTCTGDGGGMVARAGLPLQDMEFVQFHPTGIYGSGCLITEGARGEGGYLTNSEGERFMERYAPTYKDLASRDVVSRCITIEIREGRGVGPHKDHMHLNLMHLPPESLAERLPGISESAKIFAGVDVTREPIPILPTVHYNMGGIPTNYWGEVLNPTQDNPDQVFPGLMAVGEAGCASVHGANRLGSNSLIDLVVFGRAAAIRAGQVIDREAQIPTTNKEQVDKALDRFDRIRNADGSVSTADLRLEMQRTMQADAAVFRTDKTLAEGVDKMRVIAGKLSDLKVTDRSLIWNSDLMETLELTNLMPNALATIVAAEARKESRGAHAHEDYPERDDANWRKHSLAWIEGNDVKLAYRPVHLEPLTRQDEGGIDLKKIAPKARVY

Cc1c(C)c2c(c(C)c1OC(=O)CCC(=O)O)CC[C@@](C)(CCC[C@H](C)CCC[C@H](C)CCCC(C)C)O2 [Compound 1, α-tocopheryl succinate]
apoptosis after CybL siRNA (MCF-7 cells; MCF7 cells treated with siRNA against CybL): reduced the levels of apoptosis mediated by α-TOS
apoptosis (MCF-7 cells; MCF-7 (erbB2-low), 24 h, normoxia or hypoxia): sensitive to apoptosis induced by α-TOS under both normoxia and hypoxia
rate of reduction of DCIP (SDH/Complex II activity) [1]: decreased rapidly and significantly after treatment with α-TOS
apoptosis in B1, B10 and B9 cells [2]: initiated apoptosis
cell killing in CII-reconstituted B9 cells ([2]; CybL-mutant (B9) cells after reconstitution of CII): restored cell sensitivity to α-TOS-induced killing
ROS accumulation in CII-dysfunctional B9 cells [2, 4]: lower levels of ROS accumulation
apoptosis in CII-dysfunctional B9 cells [2, 4]: relatively resistant to apoptosis
tumor growth (MCF-7 tumors): repressed the growth of tumors in the treated group of mice with an overall reduction in tumor size
pKa [3]: < 6
